# What was measured:
# [1] = test system: Cells producing MAb A; experiment: mock perfusion assay, glycan analysis; assay type: cell-based, Chinese hamster; conditions: for Man5 / Man6 / Man7 / Man8a / Man8b / Man9: day 10
# Procedure: (§1) Mock perfusion assay is a small scale, plate-based assay that is designed to mimic perfusion conditions in bioreactors through daily medium exchanges. For a 10-day mock perfusion assay, passaging cultures of various production cell lines were diluted 1:5 into chemically defined base perfusion medium in a 24 deep-well plate at a final volume of 3 ml per well. Mock perfusion was initiated on day 3 when the cells were spun down at 1000 rpm for 5 minutes and 25% of each spent culture medium was exchanged with the equivalent volume of fresh perfusion media. Subsequent medium exchange percentages were 40% on days 4-8 and 50% on day 9. Exchanged supernatants were stored at 4° C. prior to analysis.
# (§2) Analysis of cell culture parameters was also started on day 3; viable cell density and viability were analyzed using the ViaCount Guava assay as previously described. Glucose was measured daily starting on day 3 and was maintained at 12 g/l. Stored supernatants were analyzed for antibody titer as described previously. Samples of supernatant fluid from days 6, 8 and 10 were also analyzed for the presence and type of glycans by HILIC analysis.
# (§3) The cell lines used included three production cell lines that are known to generate mAbs with low high mannose glycans (MAb A, MAb B and MAb C) and one production cell line that consistently produces product with high levels of high mannose glycans (MAb D). […] Equivalent volumes of methanol were added daily to control cultures (columns 1 and 2 of the 24-well plate). This scheme is depicted below:
# (§4) Total high mannose values (Total HM column) and the corresponding distributions into high mannose species from Man5 through Man9 were determined for purified antibody samples collected on day 10. Each value shown in Table 4 represents an average of duplicates.
# [2] = test system: Cells producing MAb B; experiment: mock perfusion assay, glycan analysis; assay type: cell-based, Chinese hamster; conditions: for Man5 / Man6 / Man7 / Man8a / Man8b / Man9: day 10
# Procedure: as §1, §2, §3, §4
# [3] = test system: Cells producing MAb D; experiment: mock perfusion assay, glycan analysis; assay type: cell-based, Chinese hamster; conditions: for Man5 / Man6 / Man7 / Man8a / Man8b / Man9: day 10
# Procedure: as §1, §2, §3, §4
# [4] = test system: recombinant cell line producing MAb E; experiment: ATF bioreactors, high mannose analysis (RP-HPLC/MS); assay type: cell-based
# Procedure: The applicability of using monensin to modulate high mannose levels in a large scale, controlled production setting was evaluated using a recombinant cell line producing MAb E in alternating tangential flow (ATF) bioreactors. MAb E cells grown in growth medium for the seed train were used to inoculate the N-1 bioreactor at 6×10^5 cells/ml in growth medium. The cells from N-1 bioreactor were then used to inoculate three, 2 L production bioreactors (N) at 7.5×10^5 cells/ml in base perfusion medium (referred to as control, Ra, and Rb bioreactors).
# The production bioreactors were grown for 20 days at pH 7.00, 36° C., 30% DO and 400 rpm agitation. These production tanks were run with the ATF system starting on day 3 with 0.5 vol/day perfusion rate, which was increased to 0.6 vol/day, 0.8352 vol/day and 1 vol/day on day 6, 7 and 8, respectively. Glucose levels were maintained separately at 5 g/L since the perfusion medium was prepared without glucose.
# Antifoam was also added into the tank as needed, while 1M Sodium Carbonate was used to maintain pH at the desired setpoint. Daily tank samples were collected for the measurement of various cell culture parameters as well as for the titer and high mannose analyses.
# Sixty micrograms of daily MAb E samples collected from ATF bioreactors were digested into the Fc/2 and Fab′2 with 60 units of the IdeS enzyme (fabRICATOR, Genovis, Lund, Sweden) in 50 mM Sodium Phosphate, 150 mM NaCl, pH 6.6 with incubation in a 37° C. water bath for 30 minutes. The digested samples were then reduced in 4M Guanidine Hydrochloride 50 mM Tris, pH 8.3 with 50 mM DTT followed by incubation in a 55° C. heat block for 10 minutes resulting in reduction to Fc/2, LC and Fd.
# Following digestion and reduction, samples were analyzed immediately by RP-HPLC/MS.
# Analysis was performed using Waters Acquity Ultra-Performance liquid chromatography (UPLC) system (Waters, Milford, Mass.) coupled to an Agilent MST Time of Flight (TOF) mass spectrometer (Agilent Technologies, Santa Clara, Calif.). The digested and reduced samples were separated on a reversed-phased Waters BEH Phenyl column (1.7 micron particle size, 2.1×150 mm; Waters, Milford, Mass.) maintained at 80° C. […]
# Five micrograms of each sample was injected and eluted at a flow rate of 0.5 mL/min with the following gradient: 30% B was held for 2.5 minutes followed by a gradient from 30% to 45% B over a duration of 5 minutes, followed by a gradient from 45% to 100% B over 0.5 minutes; B was held at 100% for 4 minutes, followed by a gradient of 100% to 30% B over 0.1 minutes, and then held at 30% B for the remaining 2.9 minutes. The UV elution was also monitored at a wavelength of 220 nm. […] Ion intensities of the deconvoluted peaks were used for quantification of the glycan species.
# [5] = constant monensin 25 nM from day 3, Day 6
# [6] = constant monensin 25 nM from day 3, Day 8
# [7] = constant monensin 25 nM from day 3, Day 10
# [8] = increasing monensin (25 nM day 4, 50 nM days 5-6, 100 nM days 7-9), Day 6
# [9] = increasing monensin (25 nM day 4, 50 nM days 5-6, 100 nM days 7-9), Day 8
# [10] = increasing monensin (25 nM day 4, 50 nM days 5-6, 100 nM days 7-9), Day 10
# [11] = increasing monensin (to 100 nM)
# [12] = 500 nM monensin for ~22 hours from day 8, MAb E
compound,measurement,setting,value
CC[C@@]1([C@@H]2O[C@@H]([C@H]3O[C@@](O)(CO)[C@H](C)C[C@@H]3C)C[C@@H]2C)CC[C@H]([C@]2(C)CC[C@]3(C[C@H](O)[C@@H](C)[C@@H]([C@@H](C)[C@@H](OC)[C@H](C)C(=O)O)O3)O2)O1 [monensin],Total HM,[1]; [5],55.7%
same,Total HM,[1]; [6],19.7%
same,Total HM,[1]; [7],9%
same,Man5,[1]; constant monensin 25 nM,5.6%
same,Man6,[1]; constant monensin 25 nM,1.2%
same,Man7,[1]; constant monensin 25 nM,1.0%
same,Man8a,[1]; constant monensin 25 nM,0.4%
same,Man8b,[1]; constant monensin 25 nM,0.6%
same,Man9,[1]; constant monensin 25 nM,0.2%
same,Total HM,"[1]; increasing monensin (25 nM day 4, 50 nM days 5-9), Day 6",61.9%
same,Total HM,"[1]; increasing monensin (25 nM day 4, 50 nM days 5-9), Day 8",44.9%
same,Total HM,"[1]; increasing monensin (25 nM day 4, 50 nM days 5-9), Day 10",23.2%
same,Man5,[1]; increasing monensin (to 50 nM),14.2%
same,Man6,[1]; increasing monensin (to 50 nM),3.7%
same,Man7,[1]; increasing monensin (to 50 nM),1.9%
same,Man8a,[1]; increasing monensin (to 50 nM),0.6%
same,Man8b,[1]; increasing monensin (to 50 nM),1.4%
same,Man9,[1]; increasing monensin (to 50 nM),0.4%
same,Total HM,[2]; [5],9.6%
same,Total HM,[2]; [6],4.6%
same,Total HM,[2]; [7],4.0%
same,Man5,[2]; constant monensin 25 nM,2.2%
same,Man6,[2]; constant monensin 25 nM,0.7%
same,Man7,[2]; constant monensin 25 nM,0.5%
same,Man8a,[2]; constant monensin 25 nM,0.3%
same,Man8b,[2]; constant monensin 25 nM,0.3%
same,Man9,[2]; constant monensin 25 nM,0.0%
same,Total HM,[2]; [8],13.2%
same,Total HM,[2]; [9],12.4%
same,Total HM,[2]; [10],14.0%
same,Man5,[2]; [11],7.7%
same,Man6,[2]; [11],3.0%
same,Man7,[2]; [11],2.0%
same,Man8a,[2]; [11],0.3%
same,Man8b,[2]; [11],0.9%
same,Man9,[2]; [11],0.1%
same,Total HM,[3]; [5],70.6%
same,Total HM,[3]; [6],80.1%
same,Total HM,[3]; [7],72.6%
same,Man5,[3]; constant monensin 25 nM,30.4%
same,Man6,[3]; constant monensin 25 nM,14.7%
same,Man7,[3]; constant monensin 25 nM,15.3%
same,Man8a,[3]; constant monensin 25 nM,0.7%
same,Man8b,[3]; constant monensin 25 nM,10.1%
same,Man9,[3]; constant monensin 25 nM,1.4%
same,high mannose species upregulated,[3]; increasing dose of monensin,primarily upregulated Man7 and Man8(b) high mannose glycans
same,Total HM,[3]; [8],83.0%
same,Total HM,[3]; [9],92.5%
same,Total HM,[3]; [10],94.9%
same,Man5,[3]; [11],12.8%
same,Man6,[3]; [11],14.9%
same,Man7,[3]; [11],27.2%
same,Man8a,[3]; [11],0.8%
same,Man8b,[3]; [11],34.3%
same,Man9,[3]; [11],5.0%
same,"high mannose levels, initial spike",[4]; [12],35-50%
same,increase in the levels of high mannose glycans on the recombinant antibodies,[4]; [12],9-10 fold
same,high mannose levels on the day of the harvest,"[4]; after flushing out of monensin by perfusion, MAb E",15-17%
same,produced antibodies containing high mannose glycans at peak,"[4]; day 10, 500 nM monensin for ~22 hours from day 8, from predicted and measured levels",89%

# — US11299760B2 (Amgen Inc., priority 2013, dated 2022)
